Reference: patent US20250313546A1, “NUCLEIC ACID BINDERS” (UNIVERSITY OF STRATHCLYDE, priority 2022, published 2025)
≈ marks a conversion by molar mass, not a printed value. Read-outs that look alike come from different tables or passages of the source.

Columns and labels:
[1] = test system: PolyAU double stranded RNA; assay: Fluorescence intercalator displacement (FID) assay, SYBR-safe probe; settings: 20 μM compound, 30° C., lower % = stronger binding
Method in brief: (§1)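 Probe displacement was measured at 30 °C in 1 mM phosphate pH 7.4 containing SybrSafe (12500-fold dilution), 3.76 ng/mL nucleic acid (salmon dsDNA or polyAU dsRNA) and 20 μM compound. Fluorescence loss is normalised between probe-only and probe-plus-nucleic-acid controls.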

[2] = test system: Genomic double stranded DNA (salmon); assay: as above; settings: 20 μM compound, 30° C., lower % = stronger binding
Method in brief: as §1

[3] = test system: Escherichia coli (ATCC 25922); assay: Antibacterial MIC, broth microdilution (CLSI); assay type: cell-based; settings: Escherichia coli, ATCC25922; read-out: MIC80 E. coli
T. equiperdum = assay: Resazurin-based (Alamar blue) drug sensitivity assay; settings: Trypanosoma equiperdum, read-out: IC50 T. equiperdum
[4] = test system: Staphylococcus aureus (ATCC 43300); assay: Antibacterial MIC, broth microdilution (CLSI); assay type: cell-based; settings: for MIC80: Staphylococcus aureus, ATCC43300, read-out: MIC80 S. aureus
T. evansi AntTat 3/3 = assay: Resazurin-based (Alamar blue) drug sensitivity assay; settings: read-out: IC50 T. evansi
[5] = test system: Enterococcus faecalis (ATCC 51299); assay: Antibacterial MIC, broth microdilution (CLSI); assay type: cell-based; settings: for MIC80: Enterococcus faecalis, ATCC51299, read-out: MIC80 E. faecalis; for E. faecalis Selectivity Indices, Group: SI, IC50 (μM)/MIC80 (μM), HEK293 cytotoxicity
Candida auris (H.17.157) = settings: for MIC99: Candidozyma auris, read-out: MIC99 Candida auris; for C. auris Selectivity Indices, Group: SI, IC50 (μM)/MIC99 (μg/mL), HEK293 cytotoxicity, Alkyl Amidines and NH Pyrroles
Procedure: (§2) The Minimum Inhibitory Concentration (MIC, at 99% inhibition) of the compounds was determined using the broth microdilution method as recommended by EUCAST (EUCAST Definitive Document E.DEF 9.3.2, Method for the determination of broth dilution minimum inhibitory concentrations of antifungal agents for conidia forming moulds and EUCAST Definitive Document E.DEF 7.3.2 Method for the determination of broth dilution minimum inhibitory concentrations of antifungal agents for yeasts).

[6] = test system: Rhizopus arrhizus (NEQAS12.35321); settings: read-out: MIC99 Rhizopus arrhizus
Procedure: as §2

T. vaginalis = assay: Trichomonas resorufin assay; assay type: cell-based; settings: for IC50: Trichomonas vaginalis, read-out: IC50 T. vaginalis; for T. vaginalis Selectivity Indices, Group: SI, IC50 (μM)/IC50 (μM), HEK293 cytotoxicity
C. neoformans (F10025) = settings: Cryptococcus neoformans, read-out: MIC99 C. neoformans
[7] = test system: Candida glabrata (ACPF3309); settings: for MIC99: Nakaseomyces glabratus, read-out: MIC99 Candida glabrata; for C. glabrata Selectivity Indices, Group: SI, IC50 (μM)/MIC99 (μg/mL), HEK293 cytotoxicity, Alkyl Amidines and NH Pyrroles
[8] = test system: A. fumigatus A1160 (MFIG001); settings: Aspergillus fumigatus, read-out: MIC99 A. fumigatus A1160
[9] = test system: SARS-CoV-2 (hCoV-19/Australia/VIC01/2020); assay: SARS-CoV-2 microplaque inhibition assay in Vero-E6 cells; assay type: cell-based; settings: for SARS-CoV-2 Selectivity Indices, Group: SI, IC50 (μM)/IC50 (μM), HEK293 cytotoxicity, Alkyl Amidines and NH Pyrroles
[10] = SI, IC50 (μM)/MIC80 (μM), HEK293 cytotoxicity, Alkyl Amidines and NH Pyrroles

Cn1cc(NC(=O)c2ccc(/C=C/c3ccc4nonc4c3)cc2)cc1C(=O)Nc1c[nH]c(C(=O)NCCN2CCOCC2)c1 [IIIb1, (E)-4-(4-(2-(benzo[c][1,2,5]oxadiazol-5-yl)vinyl)benzamido)-1-methyl-N-(5-((2-morpholinoethyl)carbamoyl)-1H-pyrrol-3-yl)-1H-pyrrole-2-carboxamide]
% Normalised Fluorescence with polyAU RNA [1]: 30%
% Normalised Fluorescence with gDNA [2]: 47%
MIC80 [3]: > 100 µM
IC50 (T. equiperdum): 10 to 100 nM
MIC80 [4]: 5 to 25 µM (≈ 3.04 to 15.2 µg/mL)
IC50 (T. evansi AntTat 3/3): 10 to 100 nM
MIC80 [5]: > 100 µM

O=C(Nc1c[nH]c(C(=O)Nc2c[nH]c(C(=O)NCCN3CCOCC3)c2)c1)c1ccc(/C=C/c2ccc3nonc3c2)cc1 [IIIb6, (E)-4-(4-(2-(benzo[c][1,2,5]oxadiazol-5-yl)vinyl)benzamido)-N-(5-((2-morpholinoethyl)carbamoyl)-1H-pyrrol-3-yl)-1H-pyrrole-2-carboxamide]
% Normalised Fluorescence with polyAU RNA [1]: 53%
% Normalised Fluorescence with gDNA [2]: 84%
MIC80 [3]: > 100 µM
IC50 (T. equiperdum): 10 to 100 nM
MIC80 [4]: 25 to 100 µM (≈ 14.9 to 59.5 µg/mL)
IC50 (T. evansi AntTat 3/3): 100 to 1000 nM
MIC80 [5]: > 100 µM

Cn1cc(NC(=O)c2cc(NC(=O)c3ccc(/C=C/c4ccc5nonc5c4)cc3)c[nH]2)cc1C(=O)NCCN1CCOCC1 [IIIb9, (E)-4-(4-(4-(2-(benzo[c][1,2,5]oxadiazol-5-yl)vinyl)benzamido)-1H-pyrrole-2-carboxamido)-1-methyl-N-(2-morpholinoethyl)-1H-pyrrole-2-carboxamide]
% Normalised Fluorescence with polyAU RNA [1]: 30%
% Normalised Fluorescence with gDNA [2]: 55%
MIC80 [3]: > 100 µM
IC50 (T. equiperdum): 10 to 100 nM
MIC80 [4]: 5 to 25 µM (≈ 3.04 to 15.2 µg/mL)
IC50 (T. evansi AntTat 3/3): 100 to 1000 nM
MIC80 [5]: 5 to 25 µM (≈ 3.04 to 15.2 µg/mL)

Cn1cc(NC(=O)c2cc(NC(=O)c3ccc(/C=C/c4cnc5ccccc5c4)cc3)cn2C)cc1C(=O)NCCC1CCCCC1 [IVa3, (E)-N-(2-cyclohexylethyl)-1-methyl-4-(1-methyl-4-(4-(2-(quinolin-3-yl)vinyl)benzamido)-1H-pyrrole-2-carboxamido)-1H-pyrrole-2-carboxamide]
MIC80 [3]: > 100 µM
IC50 (T. equiperdum): 100 to 1000 nM
MIC80 [4]: 25 to 100 µM (≈ 15.7 to 62.9 µg/mL)
IC50 (T. evansi AntTat 3/3): 100 to 1000 nM
MIC80 [5]: > 100 µM

CCCCCNC(=N)CCNC(=O)c1cc(NC(=O)c2cc(NC(=O)c3ccc(/C=C/c4cnc5ccccc5c4)cc3)cn2C)cn1C [Ia35, (E)-N-(3-imino-3-(pentylamino)propyl)-1-methyl-4-(1-methyl-4-(4-(2-(quinolin-3-yl)vinyl)benzamido)-1H-pyrrole-2-carboxamido)-1H-pyrrole-2-carboxamide]
MIC99 (Candida auris (H.17.157)): > 50 µg/mL
MIC99 [6]: > 50 µg/mL
% Normalised Fluorescence with polyAU RNA [1]: 3%
% Normalised Fluorescence with gDNA [2]: 21%
IC50 (T. vaginalis): 1000 to 5000 nM
MIC80 [3]: > 100 µM
MIC99 (C. neoformans (F10025)): 25 to 50 µg/mL (≈ 37.9 to 75.9 µM)
MIC80 [4]: < 5 µM
MIC80 [5]: 5 to 25 µM (≈ 3.29 to 16.5 µg/mL)
MIC99 [7]: 5 to 25 µg/mL (≈ 7.59 to 37.9 µM)
MIC99 [8]: > 50 µg/mL

Cn1cc(NC(=O)c2cc(NC(=O)c3ccc(/C=C/c4cnc5ccccc5c4)cc3)cn2C)cc1C(=O)NCCC(=N)N1CCCCC1 [Ib1, (E)-N-(3-imino-3-(piperidin-1-yl)propyl)-1-methyl-4-(1-methyl-4-(4-(2-(quinolin-3-yl)vinyl)benzamido)-1H-pyrrole-2-carboxamido)-1H-pyrrole-2-carboxamide]
MIC99 (Candida auris (H.17.157)): > 50 µg/mL
MIC99 [6]: 25 to 50 µg/mL (≈ 38.1 to 76.1 µM)
% Normalised Fluorescence with polyAU RNA [1]: 12%
% Normalised Fluorescence with gDNA [2]: 23%
IC50 (T. vaginalis; resorufin assay): 1000 to 5000 nM
MIC80 [3]: > 100 µM
MIC99 (C. neoformans (F10025)): 5 to 25 µg/mL (≈ 7.61 to 38.1 µM)
S. aureus Selectivity Indices, Group [4, 10]: D (D: SI > 10)
S. aureus Selectivity Index (SI) ([4]; SI, IC50 (μM)/MIC80 (μM), HEK293 cytotoxicity, numeric value): 11
MIC80 [4]: < 5 µM
MIC80 [5]: < 5 µM
MIC99 [7]: < 5 µg/mL
MIC99 [8]: 5 to 25 µg/mL (≈ 7.61 to 38.1 µM)

[H]/N=C(\CCNC(=O)c1cc(NC(=O)c2cc(NC(=O)c3ccc(C=Cc4ccc5nonc5c4)cc3)cn2C)cn1C)N1CCCCC1 [Ib2, (E)-4-(4-(2-(benzo[c][1,2,5]oxadiazol-5-yl)vinyl)benzamido)-N-(5-((3-imino-3-(piperidin-1-yl)propyl)carbamoyl)-1-methyl-1H-pyrrol-3-yl)-1-methyl-1H-pyrrole-2-carboxamide]
MIC99 (Candida auris (H.17.157)): > 50 µg/mL
MIC99 [6]: 5 to 25 µg/mL (≈ 7.72 to 38.6 µM)
% Normalised Fluorescence with polyAU RNA [1]: 3%
% Normalised Fluorescence with gDNA [2]: 12%
IC50 (T. vaginalis): < 1000 nM
MIC80 [3]: > 100 µM
MIC99 (C. neoformans (F10025)): 5 to 25 µg/mL (≈ 7.72 to 38.6 µM)
MIC80 [4]: < 5 µM
MIC80 [5]: < 5 µM
MIC99 [7]: < 5 µg/mL
MIC99 [8]: 5 to 25 µg/mL (≈ 7.72 to 38.6 µM)

COc1cccc(/C=C/c2ccc(C(=O)Nc3cc(C(=O)Nc4cc(C(=O)NCCN5CCOCC5)n(C)c4)n(C)c3)cc2)c1 [Ref-1, reference compound]
C. auris Selectivity Indices, Group (Candida auris (H.17.157)): A (Group A: SI < 0.4)
T. vaginalis Selectivity Indices, Group (T. vaginalis; Alkyl Amidines and NH Pyrroles): A (Group A: SI < 8)
S. aureus Selectivity Indices, Group [4, 10]: A (Group A: SI < 3)
SARS-CoV-2 Selectivity Indices, Group [9]: A (Group A: SI < 4.1)
E. faecalis Selectivity Indices, Group ([5]; Alkyl Amidines and NH Pyrroles): A (Group A: SI < 3)
C. glabrata Selectivity Indices, Group [7]: A (Group A: SI < 12)

COc1ccc(/C=C/c2ccc(C(=O)Nc3cc(C(=O)Nc4cc(C(=O)NCCN5CCOCC5)n(C)c4)n(C)c3)cn2)cc1 [Ref-2, reference compound]
C. auris Selectivity Indices, Group (Candida auris (H.17.157)): A (Group A: SI < 0.4)
T. vaginalis Selectivity Indices, Group (T. vaginalis; Alkyl Amidines and NH Pyrroles): A (Group A: SI < 8)
S. aureus Selectivity Indices, Group [4, 10]: A (Group A: SI < 3)
SARS-CoV-2 Selectivity Indices, Group [9]: A (Group A: SI < 4.1)
E. faecalis Selectivity Indices, Group ([5]; Alkyl Amidines and NH Pyrroles): A (Group A: SI < 3)
C. glabrata Selectivity Indices, Group [7]: A (Group A: SI < 12)

Cn1cc(NC(=O)c2cc(NC(=O)c3ccc(/C=C/c4cnc5ccccc5c4)cc3)cn2C)cc1C(=O)NCCN1CCOCC1 [Ref-3, (E)-1-methyl-4-(1-methyl-4-(4-(2-(quinolin-3-yl)vinyl)benzamido)-1H-pyrrole-2-carboxamido)-N-(2-morpholinoethyl)-1H-pyrrole-2-carboxamide, reference compound]
C. auris Selectivity Indices, Group (Candida auris (H.17.157)): A (Group A: SI < 0.4)
T. vaginalis Selectivity Indices, Group (T. vaginalis; Alkyl Amidines and NH Pyrroles): A (Group A: SI < 8)
T. vaginalis Selectivity Indices, Group (T. vaginalis; Amides): A (Group A: SI < 0.25)
S. aureus Selectivity Indices, Group [4, 10]: A (Group A: SI < 3)
S. aureus Selectivity Indices, Group ([4]; SI, IC50 (μM)/MIC80 (μM), HEK293 cytotoxicity, Amides): A (Group A: SI < 1.4)
SARS-CoV-2 Selectivity Indices, Group [9]: A (Group A: SI < 4.1)
E. faecalis Selectivity Indices, Group ([5]; Alkyl Amidines and NH Pyrroles): A (Group A: SI < 3)
E. faecalis Selectivity Indices, Group ([5]; Amides): A (Group A: SI < 0.4)
C. glabrata Selectivity Indices, Group [7]: A (Group A: SI < 12)

COc1cccc(/C=C/c2ccc(C(=O)Nc3cc(C(=O)Nc4cc(C(=O)NCCC(=N)N)n(C)c4)n(C)c3)cc2)c1 [Ref-5, reference compound]
T. vaginalis Selectivity Indices, Group (T. vaginalis; Alkyl Amidines and NH Pyrroles): A (Group A: SI < 8)
S. aureus Selectivity Indices, Group [4, 10]: A (Group A: SI < 3)
SARS-CoV-2 Selectivity Indices, Group [9]: A (Group A: SI < 4.1)
E. faecalis Selectivity Indices, Group ([5]; Alkyl Amidines and NH Pyrroles): A (Group A: SI < 3)
C. glabrata Selectivity Indices, Group [7]: A (Group A: SI < 12)

CCN(CC)CCCC(C)Nc1ccnc2cc(Cl)ccc12 (stereo not shown) [chloroquine diphosphate, reference compound]
IC50 ([9]; Severe acute respiratory syndrome coronavirus 2, Vero C1008, read-out: IC50 SARS-CoV-2 infectious viral foci): 641 nM
